According to patent publication US20020137929A1, “1 - (3-heterocyclylphenyl) isothiourea, -isourea, -guanidine and -amidine herbicidal agents” (Intellectual Property Department, BASF Aktiengesellschaft, priority 1998, published 2002):

Legend:
[1] = system: ZEAMX (Corn, Field); experiment: Preemergence herbicidal evaluation; type: in vivo, Zea mays; conditions: rated 4-5 weeks after treatment
Procedure, shortened: (§1)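 Each species is sown separately in potting soil over roughly an inch of soil before any emergence. The soil surface then receives an aqueous acetone spray delivering about 0.0156 to 0.500 kg/ha of compound. After four to five weeks, injury is scored from 0 to 9 relative to a control.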

[2] = system: SETVI (Foxtail, Green); experiment: Preemergence herbicidal evaluation; type: in vivo, Setaria viridis; conditions: rated 4-5 weeks after treatment
Procedure, shortened: as §1

[3] = system: MOOVA (Monochoria); experiment: Preemergence weed control under flooded paddy conditions; type: in vivo, Monochoria vaginalis; conditions: rated 3-4 weeks after treatment
Procedure, shortened: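 First, seeds or propagules go into the top 0.5 cm of silt loam; next, water is held 1.5 to 3 cm over the soil; then compound (50/50 acetone/water) is pipetted into it at about 0.0313 to 0.500 kg/ha; finally plants are rated visually 0-9 after three to four weeks.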

[4] = system: IPOHE (Morningglory, Ivyleaf); experiment: Preemergence herbicidal evaluation; type: in vivo, Ipomoea hederacea; conditions: rated 4-5 weeks after treatment
Procedure, shortened: as §1

[5] = system: ECHCG (Barnyardgrass); experiment: Preemergence herbicidal evaluation; type: in vivo, Echinochloa crus-galli; conditions: rated 4-5 weeks after treatment
Procedure, shortened: as §1

[6] = system: IPOHE (Morningglory, Ivyleaf); experiment: Postemergence herbicidal evaluation; type: in vivo, Ipomoea hederacea; conditions: postemergence
Procedure, shortened: (§2)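 Compound is applied as a foliar spray to seedlings about two weeks old, formulated in equal parts acetone and water with 0.5% TWEEN 20 and delivered at 40 psi to give about 0.0156–0.500 kg per hectare. Injury is rated visually 0–9 after four to five weeks.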

[7] = system: ECHORC (Watergrass (Calif.)); experiment: Preemergence weed control under flooded paddy conditions; type: in vivo, Echinochloa oryzoides; conditions: rated 3-4 weeks after treatment
Procedure, shortened: (§3)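 Herbicidal effect is scored visually on a 0-9 scale against an untreated control, three to four weeks after compounds are pipetted into the flood water (1.5 to 3 cm deep) over seeds planted in silt loam at 0.5 cm depth. Rates: about 0.0313 to 0.500 kg/ha.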

[8] = system: SETVI (Foxtail, Green); experiment: Postemergence herbicidal evaluation; type: in vivo, Setaria viridis; conditions: postemergence
Procedure, shortened: as §2

[9] = system: CYPIR (Rice Flatsedge); experiment: Preemergence weed control under flooded paddy conditions; type: in vivo, Cyperus iria; conditions: rated 3-4 weeks after treatment
Procedure, shortened: as §3

[10] = system: ABUTH (Velvetleaf); experiment: Preemergence herbicidal evaluation; type: in vivo, Abutilon theophrasti; conditions: rated 4-5 weeks after treatment
Procedure, shortened: as §1

[11] = system: TRZAWR (Wheat, Winter, cv Riband); experiment: Postemergence herbicidal evaluation; type: in vivo, Triticum aestivum; conditions: postemergence
Procedure, shortened: as §2

[12] = system: GALAP (Galium); experiment: Postemergence herbicidal evaluation; type: in vivo, Galium aparine; conditions: postemergence
Procedure, shortened: as §2

[13] = rate 0.0156 kg/ha, rating scale 0-9
[14] = rate 0.0313 kg/ha, rating scale 0-9
[15] = rate 0.0625 kg/ha, rating scale 0-9
[16] = rate 0.1250 kg/ha, rating scale 0-9
[17] = rate 0.2500 kg/ha, rating scale 0-9

## CCOC(=O)CN1C(=O)C(C(=O)OC(C)(C)C)SC1=Nc1cc(-n2c(=O)cc(C(F)(F)F)n(C)c2=O)c(F)cc1Cl (stereo not shown) [Compound 167, 5-Carboxy-2-{{2-chloro-5-[3,6-dihydro-3-methyl-2,6-dioxo-4-(trifluoromethyl)-1(2H)-pyrimidinyl]-4-fluorophenyl}imino}-4-oxo-3-thiazolidineacetic acid, 5-tert-butyl ethyl ester]
[1]; 0.0156 kg/ha
  Preemergence herbicidal rating ZEAMX: 0.0
[1]; 0.0313 kg/ha
  Preemergence herbicidal rating ZEAMX: 0.0
[1]; 0.0625 kg/ha
  Preemergence herbicidal rating ZEAMX: 3.0
[1]; 0.1250 kg/ha
  Preemergence herbicidal rating ZEAMX: 3.0
[1]; 0.2500 kg/ha
  Preemergence herbicidal rating ZEAMX: 6.0
[1]; 0.5000 kg/ha
  Preemergence herbicidal rating ZEAMX: 7.0
[2]; 0.0156 kg/ha
  Preemergence herbicidal rating SETVI: 5.0
[2]; 0.0313 kg/ha
  Preemergence herbicidal rating SETVI: 7.0
[2]; 0.0625 kg/ha
  Preemergence herbicidal rating SETVI: 9.0
[2]; 0.1250 kg/ha
  Preemergence herbicidal rating SETVI: 9.0
[2]; 0.2500 kg/ha
  Preemergence herbicidal rating SETVI: 9.0
[2]; 0.5000 kg/ha
  Preemergence herbicidal rating SETVI: 9.0
[3]; 0.0313 kg/ha
  herbicidal effect rating, MOOVA: 9.0
[3]; 0.0625 kg/ha
  herbicidal effect rating, MOOVA: 9.0
[3]; 0.1250 kg/ha
  herbicidal effect rating, MOOVA: 9.0
[3]; 0.2500 kg/ha
  herbicidal effect rating, MOOVA: 9.0
[4]; 0.0156 kg/ha
  Preemergence herbicidal rating IPOHE: 0.0
[4]; 0.0313 kg/ha
  Preemergence herbicidal rating IPOHE: 0.0
[4]; 0.0625 kg/ha
  Preemergence herbicidal rating IPOHE: 2.0
[4]; 0.1250 kg/ha
  Preemergence herbicidal rating IPOHE: 3.0
[4]; 0.2500 kg/ha
  Preemergence herbicidal rating IPOHE: 9.0
[4]; 0.5000 kg/ha
  Preemergence herbicidal rating IPOHE: 9.0
[5]; 0.0156 kg/ha
  Preemergence herbicidal rating ECHCG: 0.0
[5]; 0.0313 kg/ha
  Preemergence herbicidal rating ECHCG: 0.0
[5]; 0.0625 kg/ha
  Preemergence herbicidal rating ECHCG: 6.0
[5]; 0.1250 kg/ha
  Preemergence herbicidal rating ECHCG: 9.0
[5]; 0.2500 kg/ha
  Preemergence herbicidal rating ECHCG: 9.0
[5]; 0.5000 kg/ha
  Preemergence herbicidal rating ECHCG: 8.0
[6]; rate 0.0156 kg/ha
  Herbicidal rating IPOHE: 9.0
[6]; rate 0.0313 kg/ha
  Herbicidal rating IPOHE: 9.0
[6]; rate 0.0625 kg/ha
  Herbicidal rating IPOHE: 9.0
[6]; rate 0.1250 kg/ha
  Herbicidal rating IPOHE: 9.0
[7]; 0.0313 kg/ha
  herbicidal effect rating, ECHORC: 9.0
[7]; 0.0625 kg/ha
  herbicidal effect rating, ECHORC: 9.0
[7]; 0.1250 kg/ha
  herbicidal effect rating, ECHORC: 9.0
[7]; 0.2500 kg/ha
  herbicidal effect rating, ECHORC: 9.0
[8]; rate 0.0156 kg/ha
  Herbicidal rating SETVI: 2.0
[8]; rate 0.0313 kg/ha
  Herbicidal rating SETVI: 4.0
[8]; rate 0.0625 kg/ha
  Herbicidal rating SETVI: 9.0
[8]; rate 0.1250 kg/ha
  Herbicidal rating SETVI: 9.0
[9]; 0.0313 kg/ha
  herbicidal effect rating, CYPIR: 7.0
[9]; 0.0625 kg/ha
  herbicidal effect rating, CYPIR: 9.0
[9]; 0.1250 kg/ha
  herbicidal effect rating, CYPIR: 9.0
[9]; 0.2500 kg/ha
  herbicidal effect rating, CYPIR: 9.0
[10]; 0.0313 kg/ha
  Preemergence herbicidal rating ABUTH: 0.0
[10]; 0.0625 kg/ha
  Preemergence herbicidal rating ABUTH: 9.0
[10]; 0.1250 kg/ha
  Preemergence herbicidal rating ABUTH: 9.0
[10]; 0.2500 kg/ha
  Preemergence herbicidal rating ABUTH: 9.0
[10]; 0.5000 kg/ha
  Preemergence herbicidal rating ABUTH: 9.0
[11]; rate 0.0156 kg/ha
  Herbicidal rating TRZAWR: 4.0
[11]; rate 0.0313 kg/ha
  Herbicidal rating TRZAWR: 4.0
[11]; rate 0.0625 kg/ha
  Herbicidal rating TRZAWR: 4.0
[11]; rate 0.1250 kg/ha
  Herbicidal rating TRZAWR: 4.5
[12]; rate 0.0156 kg/ha
  Herbicidal rating GALAP: 2.0
[12]; rate 0.0313 kg/ha
  Herbicidal rating GALAP: 3.0
[12]; rate 0.0625 kg/ha
  Herbicidal rating GALAP: 4.0
[12]; rate 0.1250 kg/ha
  Herbicidal rating GALAP: 4.0

## CN(C)c1ccc(CN2C(=O)CSC2=Nc2cc(-n3c(=O)cc(C(F)(F)F)n(C)c3=O)c(F)cc2Cl)cc1 [Compound 138, 3-{4-Chloro-5-{{3-[p-(dimethylamino)benzyl]-4-oxo-2-thiazolidinylidene}amino}-2-fluorophenyl}-1-methyl-6-(trifluoromethyl)-2,4(1H,3H)-pyrimidinedione]
[1]; [13]
  Preemergence herbicidal rating ZEAMX: 0.0
[1]; [14]
  Preemergence herbicidal rating ZEAMX: 0.0
[1]; [15]
  Preemergence herbicidal rating ZEAMX: 0.0
[1]; [16]
  Preemergence herbicidal rating ZEAMX: 0.0
[1]; [17]
  Preemergence herbicidal rating ZEAMX: 0.0
[2]; [13]
  Preemergence herbicidal rating SETVI: 0.0
[2]; [14]
  Preemergence herbicidal rating SETVI: 0.0
[2]; [15]
  Preemergence herbicidal rating SETVI: 0.0
[2]; [16]
  Preemergence herbicidal rating SETVI: 3.0
[2]; [17]
  Preemergence herbicidal rating SETVI: 2.0
[3]; 0.0313 kg/ha
  herbicidal effect rating, MOOVA: 5.0
[3]; 0.0625 kg/ha
  herbicidal effect rating, MOOVA: 6.0
[3]; 0.1250 kg/ha
  herbicidal effect rating, MOOVA: 6.0
[3]; 0.2500 kg/ha
  herbicidal effect rating, MOOVA: 7.0
[4]; [13]
  Preemergence herbicidal rating IPOHE: 0.0
[4]; [14]
  Preemergence herbicidal rating IPOHE: 0.0
[4]; [15]
  Preemergence herbicidal rating IPOHE: 0.0
[4]; [16]
  Preemergence herbicidal rating IPOHE: 0.0
[4]; [17]
  Preemergence herbicidal rating IPOHE: 0.0
[5]; [13]
  Preemergence herbicidal rating ECHCG: 0.0
[5]; [14]
  Preemergence herbicidal rating ECHCG: 0.0
[5]; [15]
  Preemergence herbicidal rating ECHCG: 0.0
[5]; [16]
  Preemergence herbicidal rating ECHCG: 0.0
[5]; [17]
  Preemergence herbicidal rating ECHCG: 0.0
[6]; rate 0.0156 kg/ha
  Herbicidal rating IPOHE: 9.0
[6]; rate 0.0313 kg/ha
  Herbicidal rating IPOHE: 9.0
[6]; rate 0.0625 kg/ha
  Herbicidal rating IPOHE: 9.0
[7]; 0.0313 kg/ha
  herbicidal effect rating, ECHORC: 7.0
[7]; 0.0625 kg/ha
  herbicidal effect rating, ECHORC: 9.0
[7]; 0.1250 kg/ha
  herbicidal effect rating, ECHORC: 9.0
[7]; 0.2500 kg/ha
  herbicidal effect rating, ECHORC: 9.0
[8]; rate 0.0156 kg/ha
  Herbicidal rating SETVI: 3.0
[8]; rate 0.0313 kg/ha
  Herbicidal rating SETVI: 4.0
[8]; rate 0.0625 kg/ha
  Herbicidal rating SETVI: 9.0
[9]; 0.0313 kg/ha
  herbicidal effect rating, CYPIR: 2.0
[9]; 0.0625 kg/ha
  herbicidal effect rating, CYPIR: 2.0
[9]; 0.1250 kg/ha
  herbicidal effect rating, CYPIR: 3.0
[9]; 0.2500 kg/ha
  herbicidal effect rating, CYPIR: 5.0
[10]; [13]
  Preemergence herbicidal rating ABUTH: 0.0
[10]; [14]
  Preemergence herbicidal rating ABUTH: 0.0
[10]; [15]
  Preemergence herbicidal rating ABUTH: 0.0
[10]; [16]
  Preemergence herbicidal rating ABUTH: 9.0
[10]; [17]
  Preemergence herbicidal rating ABUTH: 9.0
[11]; rate 0.0156 kg/ha
  Herbicidal rating TRZAWR: 2.5
[11]; rate 0.0313 kg/ha
  Herbicidal rating TRZAWR: 3.0
[11]; rate 0.0625 kg/ha
  Herbicidal rating TRZAWR: 3.0
[12]; rate 0.0156 kg/ha
  Herbicidal rating GALAP: 0.0
[12]; rate 0.0313 kg/ha
  Herbicidal rating GALAP: 2.0
[12]; rate 0.0625 kg/ha
  Herbicidal rating GALAP: 2.0
